Results: ChEMBL document CHEMBL1201862, “PubChem BioAssay data set” (2004)
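Method: 48-hour compound exposure of cells in 96-well plates, five concentrations, linear interpolation of endpoints. GI50 is the concentration that inhibits growth by half.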 Activity calls are given as the source filed them. No stated cut-off is given here; in the data, active = GI50 up to about 1.1 µM and inactive = higher.

What was measured:
Test in all cases: growth of human tumour cells (NCI), 48 h
A498 = system: A498
KM12 = system: KM12
CAKI-1 = system: CAKI-1
UACC-62 = system: UACC-62
OVCAR-5 = system: OVCAR-5
M14 = system: M14
HCC 2998 = system: HCC 2998
SF-539 = system: SF-539
MDA-MB-231 = system: MDA-MB-231
SF-268 = system: SF-268
NCI/ADR-RES = system: NCI/ADR-RES
HCT-15 = system: HCT-15
SF-295 = system: SF-295
EKVX = system: EKVX
MCF7 = system: MCF7
SNB-75 = system: SNB-75
A549 = system: A549
SK-MEL-2 = system: SK-MEL-2
UO-31 = system: UO-31
SNB-19 = system: SNB-19

Row | Compound | GI50 (A498) | GI50 (KM12) | GI50 (CAKI-1) | GI50 (UACC-62) | GI50 (OVCAR-5) | GI50 (M14) | GI50 (HCC 2998) | GI50 (SF-539) | GI50 (MDA-MB-231) | GI50 (SF-268) | GI50 (NCI/ADR-RES) | GI50 (HCT-15) | GI50 (SF-295) | GI50 (EKVX) | GI50 (MCF7) | GI50 (SNB-75) | GI50 (A549) | GI50 (SK-MEL-2) | GI50 (UO-31) | GI50 (SNB-19)
1 | COc1ccc(/C=C2/CSC/C(=C/c3ccc(OC)c(OC)c3)C2=O)cc1OC | 4.93 µM (inactive) | 0.798 µM (active) | 3.49 µM (inactive) | 1.69 µM (inactive) | 4.62 µM (inactive) | 3.04 µM (inactive) | 2.57 µM (inactive) | 2.03 µM (inactive) | 3.28 µM (inactive) | 1.99 µM (inactive) | 1.66 µM (inactive) | 1.52 µM | 2.44 µM (inactive) | 5.86 µM (inactive) | 2.22 µM (inactive) | 6.4 µM (inactive) | 2.27 µM (inactive) | 2.56 µM (inactive) | 4.65 µM (inactive) | 3.5 µM (inactive)
2 | COc1ccccc1NCc1nnc(CCCCCCCCc2nnc(CNc3ccccc3OC)o2)o1 | > 100 µM (inactive) | > 100 µM (inactive) | > 100 µM (inactive) | > 100 µM (inactive) | > 100 µM (inactive) | > 100 µM (inactive) | > 100 µM (inactive) | – | > 100 µM (inactive) | > 100 µM (inactive) | > 100 µM (inactive) | > 100 µM | > 100 µM (inactive) | > 100 µM (inactive) | > 100 µM (inactive) | > 100 µM (inactive) | > 100 µM (inactive) | > 100 µM (inactive) | > 100 µM (inactive) | > 100 µM (inactive)
3 | C=CC(CBr)CCC(Br)C(C)(C)Br (centres undefined) | > 10 µM (inactive) | > 10 µM (inactive) | > 10 µM (inactive) | – | > 10 µM (inactive) | > 10 µM (inactive) | > 10 µM (inactive) | > 10 µM (inactive) | > 10 µM (inactive) | > 10 µM (inactive) | > 10 µM (inactive) | > 10 µM | > 10 µM (inactive) | > 10 µM (inactive) | > 10 µM (inactive) | > 10 µM (inactive) | > 10 µM (inactive) | > 10 µM (inactive) | > 10 µM (inactive) | > 10 µM (inactive)
4 | COC(=O)C1C(OS(=O)(=O)O)CCC2CN3CCc4c([nH]c5ccccc45)C3CC21 (centres undefined) | > 100 µM (inactive) | > 100 µM (inactive) | > 100 µM (inactive) | > 100 µM (inactive) | > 100 µM (inactive) | > 100 µM (inactive) | – | > 100 µM (inactive) | > 100 µM (inactive) | > 100 µM (inactive) | > 100 µM (inactive) | > 100 µM | > 100 µM (inactive) | > 100 µM (inactive) | > 100 µM (inactive) | > 100 µM (inactive) | > 100 µM (inactive) | > 100 µM (inactive) | > 100 µM (inactive) | > 100 µM (inactive)
5 | COc1ccc2cc1Oc1ccc(cc1)C(Sc1ccccc1)CCOC(=O)CC2 (centres undefined) | > 100 µM (inactive) | > 100 µM (inactive) | > 100 µM (inactive) | > 100 µM (inactive) | > 100 µM (inactive) | > 100 µM (inactive) | > 100 µM (inactive) | > 100 µM (inactive) | 54 µM (inactive) | > 100 µM (inactive) | > 100 µM (inactive) | 18.1 µM | > 100 µM (inactive) | > 100 µM (inactive) | > 100 µM (inactive) | > 100 µM (inactive) | > 100 µM (inactive) | > 100 µM (inactive) | > 100 µM (inactive) | > 100 µM (inactive)
6 | Cc1c(/C=N/NC(=S)Nc2cccc(Cl)c2)c(=O)n(-c2ccccc2)n1C | 3.14 µM (inactive) | 18.7 µM (inactive) | 13 µM (inactive) | 30.7 µM (inactive) | – | 16.6 µM (inactive) | 55.6 µM (inactive) | 17.1 µM (inactive) | 17.6 µM (inactive) | 16.4 µM (inactive) | 4.35 µM (inactive) | 3.91 µM | 10.4 µM (inactive) | 6.65 µM (inactive) | 24.2 µM (inactive) | 15 µM (inactive) | – | 18.6 µM (inactive) | 15.3 µM (inactive) | 19.1 µM (inactive)
7 | COc1ccc(C(=O)Cn2c(C(=O)/C=C/c3ccco3)nc3ccccc32)cc1 | 35.5 µM (inactive) | 28.3 µM (inactive) | – | 27.4 µM (inactive) | > 100 µM (inactive) | 36.6 µM (inactive) | 16.6 µM (inactive) | 34 µM (inactive) | 28.7 µM (inactive) | 24.5 µM (inactive) | 25.9 µM (inactive) | 33.3 µM | – | – | 19.4 µM (inactive) | 76.6 µM (inactive) | 42.8 µM (inactive) | 17.5 µM (inactive) | 31.6 µM (inactive) | 39.2 µM (inactive)
8 | CC(=S)NC=C(C(N)=O)C(N)=O | > 100 µM (inactive) | > 100 µM (inactive) | > 100 µM (inactive) | > 100 µM (inactive) | > 100 µM (inactive) | > 100 µM (inactive) | > 100 µM (inactive) | > 100 µM (inactive) | > 100 µM (inactive) | > 100 µM (inactive) | > 100 µM (inactive) | > 100 µM | > 100 µM (inactive) | > 100 µM (inactive) | > 100 µM (inactive) | > 100 µM (inactive) | > 100 µM (inactive) | > 100 µM (inactive) | – | –
9 | COC(=O)/N=[N+](\[O-])C(c1ccccc1)c1ccccc1 | > 100 µM (inactive) | > 100 µM (inactive) | 76.6 µM (inactive) | 51.6 µM (inactive) | > 100 µM (inactive) | 31.8 µM (inactive) | > 100 µM (inactive) | > 100 µM (inactive) | > 100 µM (inactive) | > 100 µM (inactive) | 40.1 µM (inactive) | 89.7 µM | – | 27.6 µM (inactive) | > 100 µM (inactive) | 82.4 µM (inactive) | 33.2 µM (inactive) | 43.2 µM (inactive) | 13.4 µM (inactive) | > 100 µM (inactive)
10 | COC(=O)C1C(O)C(C)C(O)C(C)C=C(C)C2=C3C(=C(C)C(=O)c4c(O)c(c(C)c(OC(C)=O)c43)NC(=O)C(C)=C/C=C\C(C)C(O)C(C)C1O)OCO2 (centres undefined) | 29.4 µM (inactive) | 31.9 µM (inactive) | – | 28 µM (inactive) | > 100 µM (inactive) | 25.2 µM (inactive) | 34.3 µM (inactive) | 37.8 µM (inactive) | 23.8 µM (inactive) | 16.1 µM (inactive) | 40.5 µM (inactive) | 22.4 µM | 51.6 µM (inactive) | 34.3 µM (inactive) | 25.3 µM (inactive) | 12.4 µM (inactive) | 54 µM (inactive) | 23.7 µM (inactive) | 25.9 µM (inactive) | > 100 µM (inactive)
11 | O=C(O)[C@@H]1NC[C@H]2C(Br)=NO[C@H]21 | > 100 µM (inactive) | > 100 µM (inactive) | > 100 µM (inactive) | > 100 µM (inactive) | > 100 µM (inactive) | > 100 µM (inactive) | > 100 µM (inactive) | – | > 100 µM (inactive) | > 100 µM (inactive) | > 100 µM (inactive) | > 100 µM | > 100 µM (inactive) | > 100 µM (inactive) | 86.9 µM (inactive) | > 100 µM (inactive) | > 100 µM (inactive) | > 100 µM (inactive) | > 100 µM (inactive) | > 100 µM (inactive)
12 | Cn1nc(C(=O)N2CC(CCl)c3c2cc([N+](=O)[O-])c2ccccc32)cc1NC(=O)Nc1cc(C(=O)N2CC(CCl)c3c2cc([N+](=O)[O-])c2ccccc32)nn1C (centres undefined) | > 100 µM (inactive) | > 100 µM (inactive) | > 100 µM (inactive) | > 100 µM (inactive) | > 100 µM (inactive) | > 100 µM (inactive) | > 100 µM (inactive) | 0.0745 µM (active) | > 100 µM (inactive) | 48.5 µM (inactive) | > 100 µM (inactive) | > 100 µM | 94.8 µM (inactive) | > 100 µM (inactive) | > 100 µM (inactive) | > 100 µM (inactive) | > 100 µM (inactive) | > 100 µM (inactive) | > 100 µM (inactive) | 77.4 µM (inactive)
13 | COc1cc(OC)cc(-c2nc3cc(F)ccc3s2)c1 | 19.1 µM (inactive) | > 100 µM (inactive) | 40.2 µM (inactive) | 16.4 µM (inactive) | 24.9 µM (inactive) | 37.3 µM (inactive) | < 0.01 µM (active) | 15.8 µM (inactive) | 13.6 µM (inactive) | 13.8 µM (inactive) | > 100 µM (inactive) | 55.1 µM | 10.6 µM (inactive) | 12.1 µM (inactive) | 1.83 µM (inactive) | – | > 100 µM (inactive) | 23.6 µM (inactive) | 31 µM (inactive) | 16.9 µM (inactive)
14 | CC(=O)NC(CCC(=O)C=[N+]=[N-])C(=O)O (centres undefined) | > 100 µM (inactive) | > 100 µM (inactive) | – | > 100 µM (inactive) | > 100 µM (inactive) | > 100 µM (inactive) | > 100 µM (inactive) | > 100 µM (inactive) | > 100 µM (inactive) | > 100 µM (inactive) | > 100 µM (inactive) | > 100 µM | > 100 µM (inactive) | > 100 µM (inactive) | > 100 µM (inactive) | > 100 µM (inactive) | > 100 µM (inactive) | > 100 µM (inactive) | > 100 µM (inactive) | > 100 µM (inactive)
15 | N#C[BH2-][n+]1cn(C2CC(OP(=O)(O)OCC3OC(n4cnc5c(N)ncnc54)CC3O)C(CO)O2)c2nc(N)[nH]c(=O)c21 (centres undefined) | > 100 µM (inactive) | > 100 µM (inactive) | > 100 µM (inactive) | > 100 µM (inactive) | > 100 µM (inactive) | – | > 100 µM (inactive) | > 100 µM (inactive) | > 100 µM (inactive) | > 100 µM (inactive) | > 100 µM (inactive) | > 100 µM | > 100 µM (inactive) | > 100 µM (inactive) | > 100 µM (inactive) | > 100 µM (inactive) | > 100 µM (inactive) | > 100 µM (inactive) | > 100 µM (inactive) | > 100 µM (inactive)
